# Experimental data from US20250145665A1, “MACROCYCLIC PEPTIDES USEFUL AS MODULATORS OF TNF ALPHA” (Bristol-Myers Squibb Company, priority 2023, published 2025).
# Read-outs that look alike come from different tables or passages of the source. Starred links: 1 amine or outer side, 2 acyl side, 3 side chain; linkers in the order of their positions; H or OH if unused. Positions of bridges follow the written chain, without caps; N, C: chain ends. Non-standard residues stand in square brackets, D forms with d. Residues, ends and D or L forms follow the SMILES beside them. *: point of attachment. Bip(4'-NHCO-C6H4-3-CH2COOH) = N[C@@H](Cc1ccc(-c2ccc(NC(=O)c3cccc(CC(=O)O)c3)cc2)cc1)C(=O)O; Bip(4'-NHCO-C6H4-4-CH2COOH) = N[C@@H](Cc1ccc(-c2ccc(NC(=O)c3ccc(CC(=O)O)cc3)cc2)cc1)C(=O)O; Bip(4'-NH) = O=C([C@H](Cc1ccc(-c2ccc(N[*:3])cc2)cc1)N[*:1])[*:2]; Bip(4'-COOH) = N[C@@H](Cc1ccc(-c2ccc(C(=O)O)cc2)cc1)C(=O)O; Indole3carbonyl(1-CH2COOH) = O=C(O)Cn1cc(C(=O)*)c2ccccc21; dArg(ω-Bn) = N=C(NCCC[C@@H](N)C(=O)O)NCc1ccccc1; Benzoyl(3-OCH2COOH) = O=C(O)COc1cccc(C(=O)*)c1; Cha = N[C@@H](CC1CCCCC1)C(=O)O; Sar = CNCC(=O)O
# Molecular target: TNFα (Homo sapiens, UniProt P01375)
# Test: TNF-Induced HEK-Blue Assay
# Assay type: cell-based
# [1] = HEK-Blue-CD40L cells, NF-kB-driven secreted alkaline phosphatase reporter, TNFα 0.5 ng/ml, 18 h, read-out: TNF induced HEK-Blue assay IC50 value
# Chain of TNFα (P01375 77-233 limits assumed): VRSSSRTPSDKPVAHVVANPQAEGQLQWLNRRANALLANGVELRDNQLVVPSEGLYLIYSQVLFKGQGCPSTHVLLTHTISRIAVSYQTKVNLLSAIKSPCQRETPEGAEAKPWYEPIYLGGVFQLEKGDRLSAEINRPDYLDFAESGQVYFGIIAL
SMILES,IC50 [nM],IC50 [1] [nM]
CC(C)C[C@@H]1NC(=O)[C@H](Cc2ccc(O)cc2)NC(=O)[C@H](C(C)C)NC(=O)[C@@H]2CCCN2C(=O)[C@H](C(C)C)NC(=O)[C@@H](CCCNC(=N)NCc2ccccc2)NC(=O)[C@H](CC(=O)O)NC(=O)[C@@H]2CCCN2C(=O)CN(C)C(=O)[C@H](Cc2ccc(-c3ccc(NC(=O)c4cn(CC(=O)O)c5ccccc45)cc3)cc2)NC(=O)[C@H](Cc2ccc(-c3ccc(C(=O)O)cc3)cc2)NC(=O)[C@H](CC2CCCCC2)NC(=O)CSC[C@@H](C(=O)NCC(N)=O)NC1=O [Example 580] ({CH2CO}-[Cha][Bip(4'-COOH)][Bip(4'-NH)](Indole3carbonyl(1-CH2COOH))[Sar]PD[dArg(ω-Bn)]VPVYLCG-NH2; thioether N-13),< 50,
CC(C)C[C@@H]1NC(=O)[C@H](Cc2ccc(O)cc2)NC(=O)[C@H](C(C)C)NC(=O)[C@@H]2CCCN2C(=O)[C@H](C(C)C)NC(=O)[C@@H](CCCNC(=N)NCc2ccccc2)NC(=O)[C@H](CC(=O)O)NC(=O)[C@@H]2CCCN2C(=O)CN(C)C(=O)[C@H](Cc2ccc(-c3ccc(NC(=O)c4ccc(CC(=O)O)cc4)cc3)cc2)NC(=O)[C@H](Cc2ccc(-c3ccc(C(=O)O)cc3)cc2)NC(=O)[C@H](CC2CCCCC2)NC(=O)CSC[C@@H](C(=O)NCC(N)=O)NC1=O [Example 582] ({CH2CO}-[Cha][Bip(4'-COOH)][Bip(4'-NHCO-C6H4-4-CH2COOH)][Sar]PD[dArg(ω-Bn)]VPVYLCG-NH2; thioether N-13),,< 50
CC(C)C[C@@H]1NC(=O)[C@H](Cc2ccc(O)cc2)NC(=O)[C@H](C(C)C)NC(=O)[C@@H]2CCCN2C(=O)[C@H](C(C)C)NC(=O)[C@@H](CCCNC(=N)NCc2ccccc2)NC(=O)[C@H](CC(=O)O)NC(=O)[C@@H]2CCCN2C(=O)CN(C)C(=O)[C@H](Cc2ccc(-c3ccc(NC(=O)c4cccc(CC(=O)O)c4)cc3)cc2)NC(=O)[C@H](Cc2ccc(-c3ccc(C(=O)O)cc3)cc2)NC(=O)[C@H](CC2CCCCC2)NC(=O)CSC[C@@H](C(=O)NCC(N)=O)NC1=O [Example 583] ({CH2CO}-[Cha][Bip(4'-COOH)][Bip(4'-NHCO-C6H4-3-CH2COOH)][Sar]PD[dArg(ω-Bn)]VPVYLCG-NH2; thioether N-13),,50 to 200
CC[C@H](C)[C@@H]1NC(=O)[C@@H](CCCNC(=N)NCc2ccccc2)NC(=O)[C@H](CC(=O)O)NC(=O)[C@H](Cc2cnc[nH]2)NC(=O)CN(C)C(=O)[C@H](Cc2ccc(-c3ccc(NC(=O)c4ccc(CC(=O)O)cc4)cc3)cc2)NC(=O)[C@H](Cc2ccc(-c3ccc(C(=O)O)cc3)cc2)NC(=O)[C@H](CC2CCCCC2)NC(=O)CSC[C@@H](C(=O)NCC(N)=O)NC(=O)[C@H](CC(C)C)NC(=O)[C@H](Cc2cnc[nH]2)NC(=O)[C@H](C(C)C)NC(=O)[C@@H]2CCCN2C1=O [Example 584] ({CH2CO}-[Cha][Bip(4'-COOH)][Bip(4'-NHCO-C6H4-4-CH2COOH)][Sar]HD[dArg(ω-Bn)]IPVHLCG-NH2; thioether N-13),,50 to 200
CC[C@H](C)[C@@H]1NC(=O)[C@@H](CCCNC(=N)NCc2ccccc2)NC(=O)[C@H](CC(=O)O)NC(=O)[C@H](Cc2cnc[nH]2)NC(=O)CN(C)C(=O)[C@H](Cc2ccc(-c3ccc(NC(=O)c4cccc(OCC(=O)O)c4)cc3)cc2)NC(=O)[C@H](Cc2ccc(-c3ccc(C(=O)O)cc3)cc2)NC(=O)[C@H](CC2CCCCC2)NC(=O)CSC[C@@H](C(=O)NCC(N)=O)NC(=O)[C@H](CC(C)C)NC(=O)[C@H](Cc2cnc[nH]2)NC(=O)[C@H](C(C)C)NC(=O)[C@@H]2CCCN2C1=O [Example 585] ({CH2CO}-[Cha][Bip(4'-COOH)][Bip(4'-NH)](Benzoyl(3-OCH2COOH))[Sar]HD[dArg(ω-Bn)]IPVHLCG-NH2; thioether N-13),,50 to 200
